Test results: paper PMC6804997 (PLoS ONE, 2019)

Tested on: HK-2 cells
Experiment: Western blot of myoglobin-stimulated HK-2 cells
Format: cell-based, Human
Protocol: Kidney tissue or cultured cell samples were sufficiently lysed in the mixture of RIPA buffer (50 mM Tris (pH7.4), 150 mM NaCl, 1% TritonX-100, 1% sodium deoxycholate, 0.1% SDS) containing 4% cocktail proteinase inhibitor (Roche, Switzerland) on ice. After centrifuged at 13,000 rpm for 15 min at 4°C, supernate of the homogenate were collected for protein quantification. Protein equivalent to 50 ug were loaded into 10–12% SDS-PAGE gels for electrophoretic separation, and then transferred to polyvinylidene difluoride (PVDF) membranes (0.2 μm, Bio-Rad Laboratories, Inc.). After protein blotting, membranes were blocks using 5% non-fat dried milk for 1h at room temperature, then probed with primary antibodies at 4°C overnight, and incubated with secondary antibodies for 1h at room temperature. […] Immunoblots were visualized with the Immobilon Western Chemiluminescent HRP Substrate (Millipore Corporation, Billerica, MA, United States) and measured with Bio-Rad Chemi Doc MP. […]

For `Cc1nc(N(C)c2ccc(Oc3ccc(C(=O)NO)cn3)cc2)c2ccccc2n1` [F7, N-hydroxy-6-(4-(methyl(2-methylquinazolin-4-yl)amino)phenoxy)nicotinamide], the “HDAC6 expression in vitro” value was “effectively inhibited” and the “inflammation in HK-2 cells (NF-κB pathway activation)” value was “ameliorated”.
